Data on 60 compounds can be found in a melting point compilation (Tetko et al.; mined from patent text by program, amines drawn as free bases though some values may be those of a salt).

As usually defined, the melting point is the temperature of the solid-liquid transition. On to `Fc1cccc(Cl)c1COc1cccnc1NC(=S)Nc1ccc(Cl)cc1`, for which the melting point lay within 162 to 164 °C.
`O=C(NCCc1ccccn1)c1ccccc1-c1ccccc1CN1C(=O)c2ccccc2C1=O` yielded a melting point of 155 °C.
Under `COCCOc1cc2ncc(C#N)c(Nc3cc(OC)c(Cl)cc3Cl)c2cc1OC` stands 210 to 212 °C; under `COc1cc2ncc(C#N)c(Nc3ccccc3SC)c2cc1OC`, 245 to 247 °C.
Under `COCCCCCCCCCCC(=O)O` stands 31 to 32 °C; under `NC(=O)c1cc(C(c2c(F)ccc(F)c2F)S(=O)(=O)CCC(F)(F)F)c(Cl)cn1` (stereo not given), 237 to 239 °C; under `Fc1ccc(Nc2ncnc3cnc(OC4CCOCC4)nc23)cc1Cl`, 220 to 222 °C.
Under `Cc1nc(Sc2ccc(N)cc2)nc(C)c1Cl` stands 160 to 161 °C; under `O=[N+]([O-])c1nccn1C1CCCCC1O` (stereo not given), 141 °C; under `CCN(CC)CCOc1ccc(Nc2ncc3c(n2)N(C(C)C)C(=O)N(c2c(Cl)cccc2Cl)C3)cc1`, 125 °C.
The compound `CC(=O)N1c2cc(Cl)cc(Cl)c2C(=O)CC1C(=O)O` (stereo not given) had a melting point of 212 to 213 °C.
The value for `C[C@H](NC(=O)OCc1ccccc1)C(=O)Nc1ccc(S(N)(=O)=O)cc1` was 245 to 246 °C.
Under `CNS(=O)(=O)/C=C/c1ccc2c(c1)c(C1CCN(C)CC1)cn2C` stands 155 to 159 °C; under `CCOC(=O)N1CCn2c(nc(-c3ccncc3)cc2=O)C(NC(=O)c2ccc3c(c2)CNCC3)C1` (racemic), 258 to 260 °C.
For `CC(=O)Nc1nc(NC(C)=O)nc(-c2ccc(-c3ccccc3)cc2)n1`, the melting point is above 260 °C.
With `CN(C)C=Nc1nc(OCc2ccc(F)cc2)ncc1F`, the melting point was 113 to 115 °C.
The value for `CNc1nc(-c2cccc(NC(=O)c3ccc(Cl)c(Cl)c3)c2)c2cc(OC)c(OC)cc2n1` was 134 to 136 °C; that for `CCN(c1nc(C)cc(-c2ccccc2C(F)(F)F)n1)c1ccc(C(C)C)cc1Br` was 101 to 102 °C; that for `CCCSc1ccc(Oc2ccc(Cl)c(Cl)c2)nc1C#N` was 67 to 69 °C.
Under `COC(=O)c1ccc(/C=C(\C)c2ccc3c(c2)SC(C)(C)S3)cc1` stands 86 to 87 °C.
Under `CC(=O)NNc1ccnc2c(NC(=O)c3c(Cl)cccc3Cl)cc(F)cc12` stands 250 to 254 °C; under `CC1CC(=O)NN=C1c1ccc(-n2ccc(CO)c2)cc1` (stereo not given), 184 to 186 °C.
In the case of `O=C1c2ccccc2-c2ncccc21`, the melting point was 132 to 136 °C.
The value for `CC(C)(C)OC(=O)NC(=S)NC(=O)OC(C)(C)C` was 124 to 127 °C; that for `CCc1ccc(CCC(=O)O)c(C(=O)O)c1` was 174 °C.
Turning to `CCC1CC(=S)N(c2ccc3oc(=O)c(N4C(=O)C(CC)CC4=S)cc3c2)C1=O` (stereo not given), the melting point fell in the range of 128 to 131 °C.
Under `COc1ccnc2c(S(=O)c3nc4ccccc4[nH]3)cccc12` (stereo not given) stands 178 to 179 °C; under `CCCC(=O)c1cn(C)cc(-c2cccc(C(F)(F)F)c2)c1=O`, 93 to 94 °C; under `COc1cc(C=CC(=O)CCc2ccco2)ccc1O`, 82 to 84 °C.
On to `CCOC(=O)C1=C(C)NC(C#N)=C(C(=O)OCC)C1c1ccccc1C(=O)OC` (stereo not given), for which the melting point is 126 to 127 °C.
For `CC(C)(C)Nc1nc(N)nc2c1ncn2C1C=CC(CO)C1` (stereo not given), the melting point was 161 to 163 °C.
Turning to `COc1ccccc1-n1c(=O)[nH]c2c(C(N)=O)nc(-c3ccc4cc[nH]c4c3)nc21`, the melting point lay in the range of 203 to 204 °C.
The value for `CCOC(=O)c1cn(-c2cnsn2)c2cc(F)c(F)cc2c1=O` was 189 to 192 °C; that for `CCOC(=O)c1[nH]cc2c1NC1=C(C(=O)CCC1)C2c1ccc(Sc2nc3ccc(F)c(F)c3[nH]2)o1` (stereo not given) was 144 to 148 °C.
Under `COc1cc(C(=O)N2CCC(CCN3CCC(C(=O)c4nc5ccccc5[nH]4)CC3)(c3ccc(Cl)c(Cl)c3)C2)cc(OC)c1OC` (stereo not given) stands 130 to 140 °C.
With `O=C(c1ccc2c(c1)OCCO2)c1ccc2nc(Cl)nc(-c3cccc(Cl)c3)c2c1`, the melting point came to 198 °C.
For the compound `C[Si](O)(Cn1cncn1)c1ccc(-c2ccccc2)cc1` (stereo not given), the melting point is 97 to 99 °C.
Under `CCC(=O)N(OC(=O)NC)C(=O)NC` stands 90.5 to 92.5 °C.
`CCOC(=O)CN(CCOc1cc2cc3c(Nc4cc(OC)c(Cl)cc4C)c(C#N)cnc3cc2cc1OCC)CC(=O)OCC` showed a melting point of 70 to 71 °C.
The value for `O=c1[nH]c(SCc2ccccc2)nc2c1NCN2C(c1ccccc1)(c1ccccc1)c1ccccc1` was 267 to 270 °C; that for `CCOCc1nc2c(N)nc3cc(OCc4nc(-c5cccs5)no4)ccc3c2n1CC(C)(C)O` was 173 to 175 °C.
`N#Cc1cccc(C(=O)Nc2cccc(C(=O)NCCC(=O)OCc3ccccc3)c2)c1` showed a melting point of 128 to 131 °C.
Under `N#Cc1c(N2CCc3ccccc3CC2)nc(N)[nH]c1=O` stands above 200 °C.
Take `O=C(NO)c1ccc(CNC(=O)c2[nH]c(-c3cccs3)cc2-c2ccc(F)cc2)cn1`: the melting point fell in the range of 189 to 191 °C.
Compound `N#CC1(Cl)C=C(O)C=NC1` (stereo not given) returned a melting point of 182 to 184 °C.
Under `CC(C)=CCc1c(O)ccc(C(=O)C=Cc2ccc(O)cc2O)c1O` stands 150 to 151 °C.
For `CN(C(=O)OC(C)(C)C)c1cc(Oc2ccc(-c3ccc(O)cc3)cc2)ccc1N`, the melting point was in the range of 89 to 91 °C.
`COC(=O)c1ccccc1Nc1cccc(C(C)NO)c1C` (stereo not given) yielded a melting point of 114 to 116 °C.
Consider `Cc1nn(CC(C)(C)O)c(-c2ccc(F)cc2)c1-c1ccc2c(c1)NC(=O)CO2`, for which the melting point fell in the range of 166 to 167 °C.
As for `CCCc1nc2c(N)nc3cc(C)ccc3c2s1`, the melting point was 186 to 187 °C.
Under `Cc1ccc(C(=O)NC(NC(=NC#N)Nc2ccccc2)C(Cl)(Cl)Cl)cc1` (stereo not given) stands 197 to 199 °C; under `Cn1cc(C(=O)NCc2ccc(Cl)cc2)c(=O)c2cc(CN3CCC(F)(F)CC3)ccc21`, 214 to 215 °C; under `O=C1NC(=O)C(Cc2ccc(CCNCC(O)COc3ccc(OCc4ccccc4)cc3)cc2)S1` (stereo not given), 51 to 53 °C.
Under `Cc1cc(CN2N=C(C(F)(F)C(F)(F)F)NC2(O)c2ccc(Cl)cc2)ccc1[N+](=O)[O-]` (stereo not given) stands 90 to 92 °C; under `COCc1nc2c(NCc3c(C)cccc3C)cc(C(=O)O)cc2n1C`, 269 to 272 °C; under `CC(=O)Nc1ccc(NCCO)c([N+](=O)[O-])c1`, 186 °C.
In the case of `O=C(C=Cc1ccc(-c2ccc3ncnc(Nc4ccc(OCc5cccc(F)c5)c(Cl)c4)c3c2)s1)NOC1CCCCO1` (stereo not given), the melting point worked out at 166 °C.
Under `COCCCNC(=O)Nc1ccc(N2CCOCC2)cc1C(=O)NCC1CCN(C(c2ccccc2)c2ccccc2)CC1` stands 175 to 176 °C; under `COC(=O)CCCC(=O)NS(=O)(=O)c1ccc(N)cc1`, above 260 °C; under `O=C(O)CSc1cc(-c2ccccc2)nc2ccccc12`, 138 °C.
